These results are taken from patent US20250241917A1, “SMALL MOLECULE ENHANCERS OF ANTISENSE OLIGO ACTIVITY” (Oregon State University, priority 2022, published 2025).

One series relates to HeLa pLuc/705 cells. The experiment in a line: HeLa pLuc/705 assay (luciferase splice-correction readout of ASO activity with enhancer co-treatment). The format is cell-based. The settings on record: for increase in 2′-MOE PS activity: 2′-MOE PS fixed at 2.5 μM; for increase in 2′-OMe PS activity: 2′-OMe PS fixed at 5 μM; for increase in PPMO activity: PPMO fixed at 5 μM; for enhancing performance in screen of Selleck Chemicals FDA-approved drug library: primary screen 10 μM, secondary screen 0.1-20 μM; for enhancer concentration range that significantly enhances ASO activity on co-treatment of cells: cell culture co-treatment with ASO or macromolecule; for enhancement of unmodified PMO activity: varied PMO concentration, enhancer fixed (febuxostat 2.5 μM; lonafarnib 250 nM), manual format (96 wells). From the text: The Hela pLuc/705 assay provides a positive readout of ASO's splice-modifying activity. Because messenger RNA (mRNA) splicing occurs in the cell's nucleus, the assay's output is indicative of the effectiveness of delivery of splice-modifying oligomers into the nucleus, which necessarily implies effective cytosolic delivery. The assay utilizes a genetically modified HeLa cell line that has been stably transfected with a gene containing coding sequence for a reporter enzyme (luciferase) and a mutated intron inserted within the coding sequence. The mutated intron cannot be properly excised resulting in an in-frame stop codon in the luciferase coding sequence, which prevents expression of functional luciferase. Two conditions must be met to produce the functional enzyme. First, an ASO must enter the cell nucleus to block the mutated splice site, thus restoring normal splicing and read through of the reporter message. The result is mRNA encoding functional reporter protein. Second, but equally important, the cells must be viable to carry out RNA processing and translation so that reporter protein activity is produced.
Correction through successful nuclear delivery of a splice-modifying ASO restores luciferase expression, which is then quantified by measurement of cell lysate luminescence with addition of luciferin substrate. This assay is a standard measure of intracellular ASO delivery within the field.
The HeLa pLuc/705 assay was miniaturized in order to allow it to be performed in […] cell culture plates, enabling the assay to be adapted to the high-throughput screening setting. The aim was to screen small molecules, with an emphasis on FDA-approved drugs, for ability to enhance ASO splice-modifying activity, which would be indicated by an increase in luminescence relative to cells treated with the ASO alone. In order to validate the approach, a positive control molecule was utilized which was already known to increase ASO activity when used alongside the ASO. Initially, a peptide intended for use in cell culture was used. Subsequently, febuxostat was used as a positive control.
The first screened compounds were the compounds in the Selleck Chemicals FDA-approved drug library for enhancing activity. This library contains 1430 compounds. Library compounds were dispensed to 10 μM in the plate wells. […] These sixteen compounds were evaluated for enhancing performance over the concentration range 0.1-20 μM. This enabled validation of the primary screening results, as well as to evaluate relative performance of hits through observation of concentration-dependent activity. Hits were evaluated based on relative enhancing performance, and they were also qualitatively evaluated for suitability for future therapeutic use, considering the identity, indication and approval status of the compound.
HeLa pLuc/705 cells were seeded into 384-well plates ([…] well volume) and incubated for 24 hours. At 24 hours, DMSO solutions of OAEs were added to subconfluent cells using an HP D300 Digital Dispenser, followed by addition of a testing ASO or DMSO. Cells were incubated for 24 hours. At 24 hours treatment time, growth medium was removed from the cells and […] of a lysis buffer/luciferin solution was added to each well. Luminescence was measured using a BioTek plate reader 5 minutes following addition of the lysis buffer/luciferin solution. Background luminescence values (generated using OAE only/DMSO-matched controls) were subtracted from experimental values. These methods apply to the commonly employed format for the assay using the HP D300 Digital Dispenser, with slight variations used for the high-throughput and manual formats.

The conditions of series [1]: in vivo, po; cited from earlier work.
The conditions of series [2]: mice, intraperitoneal administration at 10 mg/kg; cited from earlier work.
The conditions of series [3]: degrades to tizoxanide; cited from earlier work.
[4] abbreviates: varied ASO concentration, enhancer fixed (resveratrol 10 μM).

For the molecule `NC(=O)N1CCC(CC(=O)N2CCC([C@H]3c4ncc(Br)cc4CCc4cc(Cl)cc(Br)c43)CC2)CC1` [lonafarnib], in the series on HeLa pLuc/705 cells (enhancer at 250 nM), the “increase in 2′-MOE PS activity” value was 2.1 fold, the “increase in 2′-OMe PS activity” value is given as 3 fold and the “increase in PPMO activity” value is 2.6 fold. Moreover, in the series on HeLa pLuc/705 cells (PPMO), the “enhancing performance in screen of Selleck Chemicals FDA-approved drug library” value (“enhancing performance in screen” for short) is recorded as “strong performers”. Moreover, in the series on HeLa pLuc/705 cells, the “enhancer concentration range that significantly enhances ASO activity on co-treatment of cells” value lay in the range of 0.1 to 20 µM and the “enhancement of unmodified PMO activity” value was “found to enhance the activity”.

Regarding `Oc1ccc(/C=C/c2cc(O)cc(O)c2)cc1` [resveratrol], in the series on HeLa pLuc/705 cells (enhancer at 10 μM), the “increase in 2′-OMe PS activity” value is reported as 1.5 fold and the “increase in PPMO activity” value was 2.1 fold. Further, the “enhancing performance in screen” value in the series on HeLa pLuc/705 cells (PPMO) was “found to be an OAE”. Also, the “enhancer concentration range that significantly enhances ASO activity on co-treatment of cells” value with HeLa pLuc/705 cells lay in the range of 1 to 20 µM. The “enhancement of 2′-MOE PS activity” value in the series with HeLa pLuc/705 cells (fixed ASO concentration, varied enhancer concentration) is “did not show enhancement”. Moreover, in the series with HeLa pLuc/705 cells (setting [4]), the “enhancement of 2′-MOE PS ASO activity” value is on record as “did show enhancement” and the “enhancement of 2′-OMe PS ASO activity” value is on record as “failed to enhance activity”. The maximum plasma concentration in series [1] was 2.4 µM.

In the case of `Nc1nc2ccc(Cl)cc2c2nc(-c3ccco3)nn12` [CGS-15943], in series [2], the adverse effects entry is listed as “no reported adverse effects”. Besides, in the series on HeLa pLuc/705 cells (enhancer at 10 μM), the “increase in 2′-MOE PS activity” value is on record as 2.6 fold, the “increase in 2′-OMe PS activity” value is recorded as 3.2 fold and the “increase in PPMO activity” value turned out to be 4 fold. The “enhancement of PPMO activity in screen of NIH Clinical Collection” value with HeLa pLuc/705 cells (PPMO) is “significant enhancement”. Besides, in the series with HeLa pLuc/705 cells, the “enhancer concentration range that significantly enhances ASO activity on co-treatment of cells” value fell in the range of 0.25 to 20 µM.

As for `Cc1nc(-c2ccc(OCC(C)C)c(C#N)c2)sc1C(=O)O` [febuxostat], in the series with HeLa pLuc/705 cells (enhancer at 5 μM), the “increase in 2′-MOE PS activity” value is listed as 3 fold. In the series with HeLa pLuc/705 cells (enhancer at 10 μM), the “increase in 2′-OMe PS activity” value is given as 6.4 fold and the “increase in PPMO activity” value is 7.9 fold. In the series with HeLa pLuc/705 cells (PPMO), the “result in screen of MicroSource Discovery Spectrum library” value was “strong hit” and the “enhancing performance in screen” value is “strong performers”. In the series with HeLa pLuc/705 cells, the “enhancer concentration range that significantly enhances ASO activity on co-treatment of cells” value lay within 0.25 to 20 µM and the “enhancement of unmodified PMO activity” value is “found to enhance the activity”.

With `CC(=O)Oc1ccccc1C(=O)Nc1ncc([N+](=O)[O-])s1` [nitazoxanide], the “enhancement of PPMO activity in screen of NIH Clinical Collection” value in the series on HeLa pLuc/705 cells (PPMO) is “significant enhancement”. Besides, the “enhancer concentration range that significantly enhances ASO activity on co-treatment of cells” value with HeLa pLuc/705 cells fell in the range of 5 to 20 µM. Further, the “degradation in human plasma” value in series [3] was “degrade very rapidly”.
